Experimental data: patent US20160039825A1 (BIOGEN MA INC., priority 2013, published 2016)

Molecular target: T1, Human ATX protein (Homo sapiens, UniProt Q13822)
T1 construct: made in house
Assay: Autotaxin (ATX) assay, FRET with FS-3 substrate
Assay type: biochemical
Conditions: upper bound bins (no greater than 100, 250 or 500 nM); FS-3 2 μM, ATX 1.0 μg/mL
How it was run: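 Hydrolysis of the FRET substrate FS-3 (2 μM final) unquenches fluorescein, read at excitation 485 nm and emission 538 nm after 2 h at room temperature, protected from light. Purified human ATX (1.0 μg/mL) and compound were first incubated for 30 min in pH 7.4 Tris/salt buffer containing 1 mg/mL fatty acid-free BSA.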

Compound	IC50
O=C(OCc1cc(C(F)(F)F)cc(C(F)(F)F)c1)N1CCCn2nc(N3CCNCC3)cc2C1 [Example 339]	≤ 250 nM
O=C(OCc1cc(C(F)(F)F)cc(C(F)(F)F)c1)N1CCCn2nc(N3CC4CCC(C3)N4)cc2C1 [Example 344]	≤ 250 nM
CN1CCC(Nc2cc3n(n2)CCCN(C(=O)OCc2cc(C(F)(F)F)cc(C(F)(F)F)c2)C3)CC1 [Example 352, 3,5-bis(trifluoromethyl)benzyl 2-((1-methylpiperidin-4-yl)amino)-7,8-dihydro-4H-pyrazolo[1,5-a][1,4]diazepine-5(6H)-carboxylate]	≤ 250 nM
CC(C)N1CCN(c2cc3n(n2)CCCN(C(=O)OCc2cc(C(F)(F)F)cc(C(F)(F)F)c2)C3)CC1 [Example 356]	≤ 100 nM
CCCN1CCN(c2cc3n(n2)CCCN(C(=O)OCc2cc(C(F)(F)F)cc(C(F)(F)F)c2)C3)CC1 [Example 357]	≤ 100 nM
O=C(OCc1cc(C(F)(F)F)cc(C(F)(F)F)c1)N1CCCn2nc(N3CCN(CCO)CC3)cc2C1 [Example 358]	≤ 100 nM
O=C(OCc1cc(C(F)(F)F)cc(C(F)(F)F)c1)N1CCCn2nc(N3CCC4NCCC43)cc2C1 (stereo not shown) [Example 359]	≤ 100 nM
CN1CCC2C1CCN2c1cc2n(n1)CCCN(C(=O)OCc1cc(C(F)(F)F)cc(C(F)(F)F)c1)C2 (stereo not shown) [Example 360]	≤ 100 nM
CC(Nc1cc2n(n1)CCCN(C(=O)OCc1cc(C(F)(F)F)cc(C(F)(F)F)c1)C2)C(=O)O (stereo not shown) [Example 361, 2-((5-(((3,5-bis(trifluoromethyl)benzyl)oxy)carbonyl)-5,6,7,8-tetra-hydro-4H-pyrazolo[1,5-a][1,4]diazepin-2-yl)amino)propanoic acid]	≤ 250 nM
CCC(Nc1cc2n(n1)CCCN(C(=O)OCc1cc(C(F)(F)F)cc(C(F)(F)F)c1)C2)C(=O)O (stereo not shown) [Example 362]	≤ 100 nM
CC(C)C(Nc1cc2n(n1)CCCN(C(=O)OCc1cc(C(F)(F)F)cc(C(F)(F)F)c1)C2)C(=O)O (stereo not shown) [Example 363]	≤ 100 nM
O=C(OCc1cc(C(F)(F)F)cc(C(F)(F)F)c1)N1CCCn2nc(-c3ccncc3)cc2C1 [Example 367]	≤ 100 nM
Cc1cc(-c2cc3n(n2)CCCN(C(=O)OCc2cc(C(F)(F)F)cc(C(F)(F)F)c2)C3)ccn1 [Example 368]	≤ 100 nM
O=C(OCc1cc(Cl)cc(C(F)(F)F)c1)N1CCCn2nc(-c3ccncc3)cc2C1 [Example 369, 3-chloro-5-(trifluoromethyl)benzyl 2-(pyridin-4-yl)-7,8-dihydro-4H-pyrazolo[1,5-a][1,4]diazepine-5(6H)-carboxylate]	≤ 100 nM
Cc1cc(-c2cc3n(n2)CCCN(C(=O)OCc2cc(Cl)cc(C(F)(F)F)c2)C3)ccn1 [Example 370]	≤ 100 nM
CN1CC=C(c2cc3n(n2)CCCN(C(=O)OCc2cc(C(F)(F)F)cc(C(F)(F)F)c2)C3)CC1 [Example 371, 3,5-bis(trifluoromethyl)benzyl 2-(1-methyl-1,2,3,6-tetrahydropyridin-4-yl)-7,8-dihydro-4H-pyrazolo[1,5-a][1,4]diazepine-5(6H)-carboxylate]	≤ 100 nM
CN1CCC(c2cc3n(n2)CCCN(C(=O)OCc2cc(C(F)(F)F)cc(C(F)(F)F)c2)C3)CC1 [Example 372, 3,5-bis(trifluoromethyl)benzyl 2-(1-methylpiperidin-4-yl)-7,8-dihydro-4H-pyrazolo[1,5-a][1,4]diazepine-5(6H)-carboxylate]	≤ 100 nM
O=C(OCc1cc(C(F)(F)F)cc(C(F)(F)F)c1)N1CCCn2nc(C3=CCNCC3)cc2C1 [Example 373, 3,5-bis(trifluoromethyl)benzyl 2-(1,2,3,6-tetrahydropyridin-4-yl)-7,8-dihydro-4H-pyrazolo[1,5-a][1,4]diazepine-5(6H)-carboxylate]	≤ 100 nM

Next, values leading:

IC50	Compound
≤ 100 nM	CC(C)(C)C1CC(Nc2cc3n(n2)CCCN(C(=O)OCc2cc(C(F)(F)F)cc(C(F)(F)F)c2)C3)CCN1 (stereo not shown) [Example 319]
≤ 100 nM	CC1(C)CC(Nc2cc3n(n2)CCCN(C(=O)OCc2cc(C(F)(F)F)cc(C(F)(F)F)c2)C3)CCN1 (stereo not shown) [Example 320]
≤ 100 nM	CC1CC(Nc2cc3n(n2)CCCN(C(=O)OCc2cc(C(F)(F)F)cc(C(F)(F)F)c2)C3)CC(C)N1 (stereo not shown) [Example 322]
≤ 100 nM	CCC1CC(Nc2cc3n(n2)CCCN(C(=O)OCc2cc(C(F)(F)F)cc(C(F)(F)F)c2)C3)CCN1 (stereo not shown) [Example 323]
≤ 100 nM	O=C(OCc1cc(C(F)(F)F)cc(C(F)(F)F)c1)N1CCCn2nc(NC3CCCCNC3)cc2C1 (stereo not shown) [Example 326]
≤ 100 nM	O=C(OCc1cc(C(F)(F)F)cc(C(F)(F)F)c1)N1CCCn2nc(N3CCCCC3=O)cc2C1 [Example 328, 3,5-bis(trifluoromethyl)benzyl 2-(2-oxopiperidin-1-yl)-7,8-dihydro-4H-pyrazolo[1,5-a][1,4]diazepine-5(6H)-carboxylate]
≤ 100 nM	CC(=O)Nc1cc2n(n1)CCCN(C(=O)OCc1cc(C(F)(F)F)cc(C(F)(F)F)c1)C2 [Example 337, 3,5-bis(trifluoromethyl)benzyl 2-acetamido-7,8-dihydro-4H-pyrazolo[1,5-a][1,4]diazepine-5(6H)-carboxylate]
≤ 100 nM	CN1CCN(c2cc3n(n2)CCCN(C(=O)OCc2cc(C(F)(F)F)cc(C(F)(F)F)c2)C3)CC1 [Example 338, 3,5-bis(trifluoromethyl)benzyl 2-(4-methylpiperazin-1-yl)-7,8-dihydro-4H-pyrazolo[1,5-a][1,4]diazepine-5(6H)-carboxylate]
≤ 100 nM	CC1(C)CN(c2cc3n(n2)CCCN(C(=O)OCc2cc(C(F)(F)F)cc(C(F)(F)F)c2)C3)CCN1 [Example 340]
≤ 100 nM	CCC1CN(c2cc3n(n2)CCCN(C(=O)OCc2cc(C(F)(F)F)cc(C(F)(F)F)c2)C3)CCN1 (stereo not shown) [Example 341]
≤ 100 nM	O=C(OCc1cc(C(F)(F)F)cc(C(F)(F)F)c1)N1CCCn2nc(N3CCCNCC3)cc2C1 [Example 342]
≤ 100 nM	CC1CN(c2cc3n(n2)CCCN(C(=O)OCc2cc(C(F)(F)F)cc(C(F)(F)F)c2)C3)CCN1 (stereo not shown) [Example 343]
≤ 100 nM	CC1CN(c2cc3n(n2)CCCN(C(=O)OCc2cc(C(F)(F)F)cc(C(F)(F)F)c2)C3)CC(C)N1 (stereo not shown) [Example 345]
≤ 100 nM	O=C(OCc1cc(C(F)(F)F)cc(C(F)(F)F)c1)N1CCCn2nc(N3CCN4CCC[C@H]4C3)cc2C1 [Example 346]
≤ 100 nM	O=C(OCc1cc(C(F)(F)F)cc(C(F)(F)F)c1)N1CCCn2nc(N3CCN4CCC[C@@H]4C3)cc2C1 [Example 347]
≤ 100 nM	O=C(OCc1cc(C(F)(F)F)cc(C(F)(F)F)c1)N1CCCn2nc(N3CCNC4(CC4)C3)cc2C1 [Example 348]
≤ 100 nM	CN1CC2CN(c3cc4n(n3)CCCN(C(=O)OCc3cc(C(F)(F)F)cc(C(F)(F)F)c3)C4)CC2C1 (stereo not shown) [Example 349]
≤ 100 nM	CCN1CC2CN(c3cc4n(n3)CCCN(C(=O)OCc3cc(C(F)(F)F)cc(C(F)(F)F)c3)C4)CC2C1 (stereo not shown) [Example 350]
≤ 100 nM	O=C(OCc1cc(C(F)(F)F)cc(C(F)(F)F)c1)N1CCCn2nc(N3CC4CNCC4C3)cc2C1 (stereo not shown) [Example 351]
≤ 100 nM	CN1CCN(c2cc3n(n2)CCCN(C(=O)OCc2cc(C(F)(F)F)cc(C(F)(F)F)c2)C3)CC12CC2 [Example 353]
≤ 100 nM	CCN1CCN(c2cc3n(n2)CCCN(C(=O)OCc2cc(C(F)(F)F)cc(C(F)(F)F)c2)C3)CC1 [Example 354]
≤ 100 nM	CN1CCCN(c2cc3n(n2)CCCN(C(=O)OCc2cc(C(F)(F)F)cc(C(F)(F)F)c2)C3)CC1 [Example 355]
